# Test results from ChEMBL document CHEMBL3507680, “University of Dundee, Gates Library screen for HepG2 cell viability”.
# Assay: Human HepG2 cell viability assay in 384 well format
# Assay type: toxicity, cell-based
# Set-up: dose 125 nL, time 70.5 hour; concentration not given beside the values
# Details: HepG2 cells, read-out: Inhibition
row,SMILES,cytotoxicity at 70.5 h
1,Cc1cnc(CNC(=O)CC2CCc3ccccc32)cn1 (configuration not stated),-13.9%
2,CSCCC(O)C(=O)N1CCC(OCc2cccnc2)CC1 (configuration not stated),16.3%
3,Cc1nn(CC(=O)O)c(C)c1NS(=O)(=O)c1cc2ccccc2s1,24.3%
4,FC(F)(F)CCc1ccnc(N[C@H]2CC[C@H](n3cnnc3)CC2)n1,-9.96%
5,O=C(NCCN1CCCC(CO)C1)c1ccc2sccc2c1 (configuration not stated),-6.22%
6,CN(C)C(C(=O)NCC(F)(F)F)c1cccc(F)c1 (configuration not stated),-2.03%
7,Cc1nn(C)cc1C(C)Nc1ncnc2sccc12 (configuration not stated),19.1%
8,CNc1nc(N2CCN(CC=C(C)C)C(CCO)C2)nc2c1CCC2 (configuration not stated),6.77%
9,c1ccc(OCc2noc(CN3CCC(N4CCSCC4)CC3)n2)cc1,-5.9%
10,NC1CCCCN(Cc2cc(-c3ccccc3OC(F)(F)F)no2)C1 (configuration not stated),-8.03%
11,Cc1nn(C)c2ncnc(NCC(O)CN3CCCCC3)c12 (configuration not stated),21.5%
12,CCN(C)C[C@@H]1CN(Cc2cnc3c(S(C)(=O)=O)cnn3c2)C[C@@H]1CO,1.07%
13,CCC(C(=O)N(Cc1ccccn1)C1CCCCC1)n1cccn1 (configuration not stated),22.3%
14,COc1ccccc1N1CCC(N2CCOCC(CO)C2)CC1 (configuration not stated),-6.73%
15,CN(CCCc1cnn(C)c1)C(=O)Nc1cccc2[nH]nnc12,-7.81%
16,CCn1ncc2[nH]c(-c3cc4c(cc3OC)OCO4)nc21,-4.87%
17,CCOc1ccc(-c2ccnc(COc3ccccc3)n2)cc1C(=O)O,-0.267%
18,CC(Cn1cncn1)NCc1csc2c1CCCC2 (configuration not stated),-0.547%
19,COc1ccc(/C=C/CN2CCCC3(C2)CN(C)C(=O)O3)cc1 (configuration not stated),11.6%
20,Cc1ccccc1C(C(=O)N(Cc1cnn(C)c1)CC(C)C)N(C)C (configuration not stated),-9.52%
21,Cc1ccc2c(c1)CN(CC(=O)NCCc1ccc(F)cc1)CC(C)O2 (configuration not stated),-7.54%
22,CCC[C@@H]1CN(c2cncc(C(=O)N3CCOCC3)n2)C[C@H]1N(C)C,32.6%
23,Fc1cccc(-n2cc(CN3CCCCC3CCn3ccnc3)cn2)c1 (configuration not stated),4.66%

row,SMILES,cytotoxicity at 70.5 h
1,Cn1nccc1C(=O)N1CCOC(Cc2ccc(F)cc2)C1 (configuration not stated),-3.53%
2,CNc1ncc(C(=O)N2CCC3(CC2)Nc2ccccc2NC3=O)cn1,-0.695%
3,O=C1NCC2(CCCN(C(=O)Nc3ccc4occc4c3)CC2)O1 (configuration not stated),-1.24%
4,Cc1nc2[nH]cc(C(=O)N3CCCCC3c3ccc(F)cc3)c(=O)n2n1 (configuration not stated),3.11%
5,COc1ccccc1N1CCN(Cc2nccc(OC)c2OC)CC1=O,7.74%
6,OC1(CN2CCc3nnc(Cc4cccnc4)n3CC2)CCCNC1 (configuration not stated),-4.53%
7,CN(CCO)Cc1nnc(C2CCN(C(=O)c3cccn3C)CC2)n1C,-5.93%
8,CCSc1ccc(C(=O)N2CCC3(CC2)[C@H](O)C[C@@H]3O)s1,-12.1%
9,COc1cccc2c1OCC(Cc1cc(C(=O)N3CCCC3)ccn1)C2 (configuration not stated),-16.5%
10,O=C(Nc1nncs1)N1CCCN(C2CCCC2)CC1,18.5%
11,CC(C)c1cc(N2CC[C@H](F)C2)n2nccc2n1,2.77%
12,Nc1nccc(-c2cccc3ccnn23)n1,-1.89%
13,COc1ccccc1CCc1nc(CC2CCN(C)CC2)no1,-2.87%
14,CCn1cncc1C1CC(=O)Nc2c1c(C)nn2C (configuration not stated),-4.74%
15,CCOC(=O)c1n[nH]cc1CN1CCOC(Cc2ccc(OC)cc2)C1 (configuration not stated),-3.26%
16,OCCCN1CCc2[nH]nc(C(c3ccccc3)c3ccccc3)c2C1,-3.77%
17,CC(C)c1cc(C(=O)N2CCN(C)[C@@H]3CS(=O)(=O)C[C@@H]32)no1,-7.29%
18,C[C@@H]1CN(C(=O)CCc2cnn(C)c2)CC[C@@]1(O)C1CCOCC1,8.15%
19,Cc1ccccc1C(CC(=O)NCc1nnc(N)s1)c1ccccc1 (configuration not stated),-3.82%
20,COc1cccc(N2CCN(Cc3ccc4occc4c3)CC2=O)c1,-12.9%
21,CC(C)(C(=O)NCC1CCN(Cc2ncc[nH]2)C1)c1ccccc1 (configuration not stated),-5.7%
22,COc1ccc2c(CN3CCN(Cc4cccc(F)c4)CC3)n[nH]c2c1,-3.1%
23,Cc1ccc(N2CCN(C(=O)CCc3ccc(O)cc3)CC2=O)cc1,-10.1%

row,SMILES,cytotoxicity at 70.5 h
1,Cn1cc(CCC(=O)N2C[C@@H]3CC[C@H](C2)N(Cc2ccccn2)C3)cn1,-14%
2,CSCC1CCN(c2nc(N)ncc2C)CC1,-9.1%
3,CCc1oc(C(=O)NCCSc2ncn[nH]2)cc1CN1CCCC1,-9.51%
4,CC(C)Oc1cc(N2CC[C@H](CO)[C@@H](O)C2)nc(N)n1,-8.74%
5,CCCN1CCC(CC(=O)NCCc2nc(C)cc(C)n2)CC1,-4.92%
6,CCn1ncnc1C(C)NC(=O)CC1CCN(C(C)C)CC1 (configuration not stated),30%
7,Cc1ccc(C(C(=O)O)N(C)CCN2CCOCC2)c(F)c1 (configuration not stated),-9.66%
8,CCC(NC(=O)C1CCN(C(=O)C2CC2)CC1)c1cn2cccnc2n1 (configuration not stated),-8.35%
9,CN1C(=O)[C@H]2CC[C@@H]1CN(C(=O)c1csc(Cc3ccccc3)n1)C2,-11.4%
10,CN(C)S(=O)(=O)N1CCCC(c2nccn2Cc2cccnc2)C1 (configuration not stated),-4.26%
11,O=C(CCCN1CCCCC1)N1CCN(C(=O)c2nc[nH]n2)CC1,-3.03%
12,CN(CCCc1cnn(C)c1)C(=O)C1CCCN(C2CCCC2)C1 (configuration not stated),7.47%
13,CNc1ncc(CN(C)C(=O)c2ccccc2C2CCNC2)cn1 (configuration not stated),1.83%
14,CN(Cc1ncnn1C1Cc2ccccc2C1)C1CCS(=O)(=O)C1 (configuration not stated),-2.74%
15,COCC(=O)N1CCCN(C(=O)C2Cc3ccccc3CN2C)CC1 (configuration not stated),11.5%
16,Cc1cc(C(F)(F)F)nc(CNC(=O)CCCN2CCCCC2)n1,-2.62%
17,O=C(c1cc(Cl)ccc1OC1CCN(C2CCCC2)CC1)N1CC(O)C1,11.8%
18,COc1cccc(-n2cc(CN(C)C(=O)c3cc[nH]n3)cn2)c1,-6.6%
19,CNC(=O)CCCNc1cc(C)nc2cc(C)nn12,5.3%
20,CCC(CO)N(Cc1ccccc1C)Cc1ccccc1C(=O)O (configuration not stated),-2.15%
21,Cc1ccc(C#N)c(N2CCC3(CCCN(C4CCOCC4)C3=O)C2)n1 (configuration not stated),-1.26%
22,O=c1[nH]c2cc3c(cc2cc1CN1CCCC1c1ccccn1)OCO3 (configuration not stated),-4.33%
23,CC(=O)NC1CCN(c2nc(N(C)C)nc3c2CCCC3)CC1,-1.98%

row,SMILES,cytotoxicity at 70.5 h
1,c1cc(CN2CCCC2)cc(-n2ccnc2-c2ccncc2)c1,0.243%
2,COCCN(C)C[C@@H]1CN(c2nc(C)cc(C)n2)C[C@@H]1CO,1.4%
3,CC(C)S(=O)(=O)N1CCCC(c2cccc(C(=O)O)c2)C1 (configuration not stated),-10.1%
4,N[C@@H]1c2ccccc2C2(CCN(C(=O)c3ccc(=O)[nH]c3)CC2)[C@H]1O,-6.66%
5,Cc1nc(CC2CCN(Cc3ccc(CCC(C)(C)O)cc3)CC2)no1,13.1%
6,O=C(O)CNc1cc(-c2cc(C3CC3)ncn2)c2cc[nH]c2n1,0.922%
7,CN(CCc1cnn(C)c1)C(=O)Cn1c(=O)[nH]c2ccccc21,-6.43%
8,Cn1cc(Cl)c(CN2CCCC(Cn3cc(CO)nn3)C2)n1 (configuration not stated),-6.23%
9,O=C(O)C1(Cc2ccc(F)cc2)CCCN(Cc2ccncc2)C1 (configuration not stated),4.55%
10,OCCC1CN(c2ncnc3[nH]cnc23)CCN1Cc1ccccc1 (configuration not stated),-3.48%
11,COCC(c1ccccn1)N(C)C(=O)c1cc(-c2ccc(O)cc2)n[nH]1 (configuration not stated),-1.31%
12,COc1ccccc1-n1cc(C(=O)NCCCn2ccnn2)cn1,-8.35%
13,COc1cccc(OCC2CCCN(C(=O)c3ccc(N)nc3)C2)c1 (configuration not stated),-11.6%
14,c1cc2c(cc1Cn1cc(C3CCOC3)nn1)OCO2 (configuration not stated),-16.1%
15,CCn1c(C2CCN(C(=O)COCC(F)(F)C(F)F)CC2)n[nH]c1=O,-6.79%
16,Cc1nc(CC(=O)N2CCC3(CC2)CC(=O)N(CC2CCCO2)C3)cs1 (configuration not stated),-3.04%
17,Cc1cccc(OC2CN(C(=O)C3CC(=O)N(C4CC4)C3)C2)c1 (configuration not stated),4.04%
18,CCC[C@H]1CN(S(C)(=O)=O)C[C@@H]1NC(=O)c1ccc(COC)cc1,0.361%
19,CCc1ccccc1CN1CC[C@@]2(O)CCN(S(=O)(=O)N(C)C)C[C@H]2C1,-3.87%
20,Cc1ccc(OCC2CCCN(c3cc(C(N)=O)ccn3)C2)cc1 (configuration not stated),4.54%
21,CC(C)(CN1CCC2(CCNCC2)CC1)N1CCOCC1,-3.64%
22,Cc1cc(C)c2[nH]c(C(=O)NCCN3CCNC3=O)c(C)c2c1,-5.43%
23,CC(=O)N1CCN(Cc2ccc3c(c2)OCCO3)CC(O)C1 (configuration not stated),-10.7%

row,SMILES,cytotoxicity at 70.5 h
1,Cn1cc(CN(C/C=C/c2ccccc2)C2CC2)cn1,-8.38%
2,Cc1c(-c2ccccc2)ncn1CC(c1cccnc1)N1CCOCC1 (configuration not stated),-2.03%
3,COc1cc(CN2CC[C@@H](N3CCCCCC3)[C@H](O)C2)cc(Cl)c1OC,-4.33%
4,COC[C@]1(O)CCN(C2CCN(c3ccc(F)c(F)c3)CC2)CC1(C)C,22.6%
5,Cc1ccc(CN2C(=O)OCC2CO)c2ccccc12 (configuration not stated),-6.41%
6,CN(Cc1nc2ccccc2c(=O)[nH]1)C[C@@H]1CCCN2CCCC[C@H]12,-2.89%
7,O=C(NCc1noc(C2CCCO2)n1)c1cn2ccsc2n1 (configuration not stated),-9.32%
8,CCC[C@H]1CN(C(=O)Cn2ccccc2=O)C[C@@H]1NS(C)(=O)=O,-1.15%
9,CCN(Cc1ccncc1)Cc1c[nH]nc1-c1ccc(F)cc1,-6.51%
10,CN(C)C(=O)CN1CCCN(CC2CCOc3ccccc3C2)CC1 (configuration not stated),-11.2%
11,CN1CCN(C)C2(CCN(Cc3ccc(C4CCCCO4)o3)CC2)C1 (configuration not stated),-1.75%
12,CCC(C(=O)NCc1csc(N2CCOCC2)n1)n1cccn1 (configuration not stated),-4.73%
13,CCCc1nnc(C(=O)N(C)Cc2cnc3ccccn23)o1,33.7%
14,CC(O)CCn1ccc2[nH]c(=O)c(C#N)cc2c1=O (configuration not stated),4.38%
15,C[C@@H]1CN(CCOc2ccc(Cl)cc2)CC[C@@]1(O)C1CCOCC1,7.29%
16,CCCC1(CO)CCCN(C(=O)CNC(N)=O)C1 (configuration not stated),-28.7%
17,Cn1c(-c2ccccc2Cl)nc2cc(C(=O)NCCOCCO)cnc21,-6.61%
18,COc1ccc(Cl)cc1C(C(=O)O)N1CCSCC1 (configuration not stated),-3.65%
19,CC(=O)N[C@@H]1CN(C(=O)c2ccc[nH]2)C[C@H]1c1ccc(C)o1,0.0626%
20,Cc1nc(C(C)N(C)Cc2nc(CCC(C)C)no2)c(C)s1 (configuration not stated),0.293%
